Legend:
Type in all cases: cell-based
[1] = test system: CD117-negative control cells (U937); experiment: Cell growth inhibition by MTT assay
Procedure: (§1) Cell growth inhibition was monitored by MTT (MTT (3-[4,5-dimethylthiazol-2-yl]-2,5-diphenyltetrazolium bromide) assay post treatment. Cells (5000) were treated by CD117 Apt-MTX or equal molar free MTX in RPMI 1640 medium for 2 h. After replacement with fresh medium containing 10% serum, cells were cultured for an additional 48 hours and then 10 μl of MTT solution (5 mg/mL in PBS) were added to each well. After a further 4 h of incubation, the culture medium was removed and the formazan crystals in the cells were solubilized with 100 μl of DMSO for 15 minutes. The UV absorbance at 570 nm was measured with a microplate reader.

AML cells (HEL) = experiment: Cell growth inhibition by MTT assay
Procedure: as §1

[2] = test system: CD117-negative control cells (U937); experiment: Apoptosis assay, Annexin V staining, flow cytometry; details: 10 nM MTX payload or equal molar
Procedure: (§2) Treated cells also were investigated by apoptosis assay. Annexin V-APC staining (BD Biosciences, San Jose, Calif.) was performed according to the manufacturer's instructions. The cell samples were analyzed using a FACS caliber (BD Biociences, San Jose, Calif., USA) flow cytometry equipped with cellquest software.

HEL cells = experiment: as above; details: 10 nM MTX payload or equal molar
Procedure: as §2

CN(Cc1cnc2nc(N)nc(N)c2n1)c1ccc(C(=O)N[C@@H](CCC(=O)O)C(=O)O)cc1 [free MTX, Methotrexate]
effect on cell proliferation (in words) ([1]; U937, 10 nM MTX, treated 2 hours, cultured 48 hr): minimal effect on both cells | inhibition ([1]; U937, 100 nM final concentration): about 30% | inhibition (AML cells (HEL); 100 nM final concentration): about 30% | effect on cell proliferation (in words) (AML cells (HEL); equal molar (10 nM MTX), treated 2 hours, cultured 48 hr): minimal effect on both cells | cell apoptosis / toxicity [2]: minimal effect on both HEL and control cells | cell apoptosis (HEL cells): minimal effect on both HEL and control cells

Reference: patent US10683506B2, “CD117 ligand-drug conjugates for targeted cancer therapy” (THE METHODIST HOSPITAL SYSTEM, priority 2015, dated 2020)
